target: PIK3CD (Human) (UniProt O00329); experiment: Enzyme Assay
Sequence (O00329 whole entry, looked up): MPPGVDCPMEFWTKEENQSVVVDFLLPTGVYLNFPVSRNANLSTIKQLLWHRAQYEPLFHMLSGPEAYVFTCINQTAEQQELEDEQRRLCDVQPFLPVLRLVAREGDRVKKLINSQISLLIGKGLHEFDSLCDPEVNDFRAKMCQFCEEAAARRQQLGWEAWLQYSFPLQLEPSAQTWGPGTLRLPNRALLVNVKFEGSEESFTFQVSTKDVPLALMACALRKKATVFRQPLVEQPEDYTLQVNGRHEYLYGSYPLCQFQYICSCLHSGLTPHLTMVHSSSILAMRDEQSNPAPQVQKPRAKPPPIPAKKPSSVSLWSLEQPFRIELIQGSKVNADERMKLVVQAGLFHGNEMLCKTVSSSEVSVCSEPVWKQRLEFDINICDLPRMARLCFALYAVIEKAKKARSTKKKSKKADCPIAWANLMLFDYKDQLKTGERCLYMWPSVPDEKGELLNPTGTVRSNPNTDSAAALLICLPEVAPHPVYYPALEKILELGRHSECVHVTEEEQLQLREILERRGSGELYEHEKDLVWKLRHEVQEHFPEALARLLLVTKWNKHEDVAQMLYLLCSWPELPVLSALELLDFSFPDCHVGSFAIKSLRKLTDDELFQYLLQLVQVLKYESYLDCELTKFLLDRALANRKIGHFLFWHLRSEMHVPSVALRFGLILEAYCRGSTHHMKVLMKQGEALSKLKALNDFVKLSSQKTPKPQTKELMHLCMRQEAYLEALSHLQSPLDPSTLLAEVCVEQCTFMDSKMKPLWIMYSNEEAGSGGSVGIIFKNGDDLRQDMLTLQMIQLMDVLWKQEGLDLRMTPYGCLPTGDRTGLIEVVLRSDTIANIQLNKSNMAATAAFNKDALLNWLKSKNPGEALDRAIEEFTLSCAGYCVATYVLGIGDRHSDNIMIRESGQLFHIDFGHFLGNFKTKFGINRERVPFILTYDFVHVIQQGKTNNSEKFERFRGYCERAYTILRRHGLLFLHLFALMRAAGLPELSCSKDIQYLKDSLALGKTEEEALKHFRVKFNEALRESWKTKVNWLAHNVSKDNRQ

Point of comparison: CCn1ncc(-c2nc3c(O[C@H]4CCN(c5cc(C(F)(F)F)ccn5)C4)ncnc3n2C)c1C, IC50 37 nM. Against it:
- CCn1c(-c2cnc(C)nc2)nc2c(O[C@H]3CCN(c4ccc(F)cc4)C3)ncnc21 — 2.1-fold lower, 18 nM
- CCC(=O)N1CC[C@H](Oc2ncnc3c2nc(-c2cnc4[nH]ccc4c2)n3C)C1 — 1.9-fold lower, 19 nM
- CCn1c(-c2cnc(C)nc2)nc2c(O[C@H]3CCN(C(=O)C4(N)CCC4)C3)ncnc21 — within 1.5-fold, 50 nM
- CCn1ncc(-c2nc3c(O[C@H]4CCN(C(=O)c5coc(C)n5)C4)ncnc3n2C)c1C — 5.7-fold lower, 6.5 nM
- Cn1c(-c2ccc(N3CCOCC3)nc2)nc2c(O[C@H]3CCN(C(=O)OC(C)(C)C)C3)ncnc21 — 120-fold higher, 4400 nM
- CCn1ncc(-c2nc3c(O[C@@H]4CC[C@H](n5c(=O)[nH]c6ncccc65)C4)ncnc3n2C)c1C — 3.2-fold higher, 120 nM
- CCC(=O)N1CC[C@H](Oc2ncnc3c2nc(Oc2cccc(C)c2C)n3C)C1 — 65-fold higher, 2400 nM
- CCn1ncc(-c2nc3c(OC4CCN(C(=O)c5ccccc5)C4)ncnc3n2C)c1C (configuration not stated) — 1.8-fold higher, 68 nM
- CCn1ncc(-c2nc3c(OC4CCN(C(=O)C5CCCC5)C4)ncnc3n2C)c1C (configuration not stated) — 3.9-fold lower, 9.4 nM
- CCn1ncc(-c2nc3c(O[C@H]4CCN(S(=O)(=O)c5cn(C)cn5)C4)ncnc3n2C)c1C — 41-fold higher, 1500 nM
- CCn1ncc(-c2nc3c(OC4CCN(C(=O)CC5CCOCC5)C4)ncnc3n2C)c1C (configuration not stated) — within 1.5-fold, 31 nM
- CCn1c(-c2cnc(C)nc2)nc2c(O[C@H]3CCN(C(=O)C=C(C)C)C3)ncnc21 — 8.4-fold lower, 4.4 nM
- CCC(=O)N1CC[C@H](Oc2ncnc3c2nc(-c2cc(F)cc(NS(C)(=O)=O)c2)n3C)C1 — 3.7-fold lower, 10 nM
- CCn1c(-c2ccc(OC(F)(F)F)cc2)nc2c(O[C@H]3CCN(C(=O)C4CC4)C3)ncnc21 — 4-fold lower, 9.3 nM
- Cn1c(-c2ccc(-n3cccn3)cc2)nc2c(O[C@H]3CCN(C(=O)OC(C)(C)C)C3)ncnc21 — within 1.5-fold, 30 nM
- CCn1ncc(-c2nc3c(O[C@H]4CCN(C(=O)c5cc6occc6[nH]5)C4)ncnc3n2C)c1C — 5.7-fold higher, 210 nM
- CCn1ncc(-c2nc3c(O[C@H]4CCN(C(=O)c5cc(C)nn5C)C4)ncnc3n2C)c1C — 1.9-fold lower, 19 nM
- CCn1c(-c2cnc(C)nc2)nc2c(O[C@H]3CCN(C(=O)C4CC4C)C3)ncnc21 (some centres not stated) — 25-fold lower, 1.5 nM
- CCn1ncc(-c2nc3c(O[C@H]4CCN(c5ncccn5)C4)ncnc3n2C)c1C — 1.8-fold lower, 21 nM
- CCn1c(-c2cnc(C)nc2)nc2c(O[C@@H]3CN(C(=O)OC(C)(C)C)C[C@H]3F)ncnc21.CCn1c(-c2cnc(C)nc2)nc2c(O[C@H]3CN(C(=O)OC(C)(C)C)C[C@@H]3F)ncnc21 — 11-fold lower, 3.3 nM
- CCn1c(-c2cnn(-c3ccccc3)c2C)nc2c(O[C@H]3CCN(C(=O)C4CC4)C3)ncnc21 — lower, < 1 nM
- CCn1c(-c2cnc(C)nc2)nc2c(O[C@H]3CCN(C(=O)[C@H]4CCC[C@H]4N)C3)ncnc21 — within 1.5-fold, 25 nM
- CCn1ncc(-c2nc3c(O[C@H]4CCN(C(=O)Oc5cccc(C(F)(F)F)c5)C4)ncnc3n2C)c1C — 8.1-fold higher, 300 nM
- CCn1c(-c2cnc(OC)c(C#N)c2)nc2c(O[C@H]3CCN(C(=O)C4CC4)C3)ncnc21 — 15-fold lower, 2.4 nM
- CCn1c(-c2cnc(C)nc2)nc2c(O[C@H]3CCN(C(=O)N(C)c4ccccc4)C3)ncnc21 — within 1.5-fold, 32 nM
- CCn1ncc(-c2nc3c(O[C@H]4CCN(C(=O)c5cccnc5)C4)ncnc3n2C)c1C — 1.9-fold lower, 19 nM
- CCn1c(-c2cnc(OC)c(F)c2)nc2c(O[C@H]3CCN(C(=O)c4ccn(C)n4)C3)ncnc21 — lower, < 1 nM
- CCn1c(-c2ccc(OC)nc2)nc2c(O[C@H]3CCN(C(=O)C4CCOCC4)C3)ncnc21 — 23-fold lower, 1.6 nM
- CCn1ncc(-c2nc3c(O[C@H]4CCN(C(=O)c5cc(C)on5)C4)ncnc3n2C)c1C — 3.1-fold lower, 12 nM
- CCn1ncc(-c2nc3c(O[C@H]4CCN(C(=O)NC(C)C)C4)ncnc3n2C)c1C — 4-fold lower, 9.2 nM
- CCn1c(-c2cnc(OC)nc2)nc2c(O[C@H]3CCN(C(=O)C4CC4)C3)ncnc21 — 5.9-fold lower, 6.3 nM
- CCn1ncc(-c2nc3c(O[C@H]4CCN(S(=O)(=O)C(F)(F)F)C4)ncnc3n2C)c1C — 27-fold higher, 1000 nM
- CCn1ncc(-c2nc3c(O[C@H]4CCN(C(=O)C5CC(F)(F)C5)C4)ncnc3n2C)c1C — 2.8-fold lower, 13 nM
- CCn1ncc(-c2nc3c(O[C@H]4CCN(C(=O)c5ccnn5C)C4)ncnc3n2C)c1C — 1.7-fold lower, 22 nM
- CCC(=O)N1CC[C@H](Oc2ncnc3c2nc(-c2cnn(CC)c2C)n3C)C1 — 3.1-fold lower, 12 nM
- Cn1c(-c2ccc3[nH]ncc3c2)nc2c(O[C@H]3CCN(C(=O)OC(C)(C)C)C3)ncnc21 — within 1.5-fold, 35 nM
- CCn1c(-c2cnc(C)nc2)nc2c(O[C@H]3CCN(C(=O)N4CC(F)C4)C3)ncnc21 — 7.3-fold lower, 5.1 nM
- CCn1ncc(-c2nc3c(O[C@H]4CCN(C(=O)C5CCOC(C)(C)C5)C4)ncnc3n2C)c1C (some centres not stated) — 31-fold lower, 1.2 nM
- CCn1ncc(-c2nc3c(O[C@H]4CCN(C(=O)c5nnc(C)o5)C4)ncnc3n2C)c1C — within 1.5-fold, 31 nM
- CCn1c(N2CCC(C)CC2)nc2c(O[C@H]3CCN(C(=O)OC(C)(C)C)C3)ncnc21 — 10-fold higher, 380 nM
- CCn1c(-c2cnc(C)nc2)nc2c(O[C@H]3CCN(C(=O)N4CCC(CO)C4)C3)ncnc21 (some centres not stated) — 3.9-fold lower, 9.5 nM
- CCn1ncc(-c2nc3c(S(=O)(=O)[C@H]4CCN(C(=O)C5CCOCC5)C4)ncnc3n2C)c1C — 26-fold higher, 960 nM
- CCn1c(-c2cnc(C)nc2)nc2c(O[C@H]3CCN(c4ccc5cnoc5c4)C3)ncnc21 — 3.4-fold lower, 11 nM
- CCn1ncc(-c2nc3c(O[C@H]4CCN(C(=O)c5nnc6n5CCCC6)C4)ncnc3n2C)c1C — 6.5-fold higher, 240 nM
- CCn1ncc(-c2nc3c(O[C@H]4CCN(C(=O)c5nonc5C)C4)ncnc3n2C)c1C — within 1.5-fold, 26 nM
- CCn1c(-c2cnc(OC)c(Cl)c2)nc2c(O[C@H]3CCN(C(=O)C4CC4)C3)ncnc21 — lower, < 1 nM
- CCn1ncc(-c2nc3c(O[C@H]4CCN(c5ccccn5)C4)ncnc3n2C)c1C — 18-fold higher, 680 nM
- CCn1ncc(-c2nc3c(S[C@H]4CCN(C(=O)OC(C)(C)C)C4)ncnc3n2C)c1C — 1.6-fold lower, 23 nM
- CCn1ncc(-c2nc3c(O[C@H]4CCN(C(=O)C5CC5)C4)ncnc3n2C)c1C — 5.9-fold lower, 6.3 nM
- CCn1ncc(-c2nc3c(O[C@H]4CC[C@H](NC(=O)OC(C)(C)C)C4)ncnc3n2C)c1C — 3.8-fold higher, 140 nM
- CCn1ncc(-c2nc3c(O[C@H]4CCN(Cc5ccc[nH]5)C4)ncnc3n2C)c1C — 12-fold higher, 440 nM
- COc1ncc(-c2nc3c(O[C@H]4CCN(C(=O)OC(C)(C)C)C4)ncnc3n2C)cc1C — 14-fold lower, 2.6 nM
- CCn1c(-c2cnc(OC)c(F)c2)nc2c(O[C@H]3CCN(C(=O)C4CCOCC4)C3)ncnc21 — lower, < 1 nM
- CCN(C)C(=O)N1CC[C@H](Oc2ncnc3c2nc(-c2cnc(C)nc2)n3CC)C1 — 3.7-fold lower, 10 nM
- CCn1c(-c2cnc(OC)c(F)c2)nc2c(O[C@H]3CCN(C(=O)C4CC4)C3)ncnc21 — lower, < 1 nM
- COC1CC(c2nc3c(O[C@H]4CCN(C(=O)OC(C)(C)C)C4)ncnc3n2C)C1 (some centres not stated) — 57-fold higher, 2100 nM
- CCn1ncc(-c2nc3c(O[C@H]4CCN(C(=O)CC#N)C4)ncnc3n2C)c1C — within 1.5-fold, 38 nM
- CCn1c(-c2cnc(C)nc2)nc2c(O[C@H]3CCN(c4cnccn4)C3)ncnc21 — within 1.5-fold, 32 nM
- CCn1c(-c2cnc(C)nc2)nc2c(OC3CCC(NC(=O)C4CCOCC4)C3)ncnc21 (configuration not stated) — 4.6-fold higher, 170 nM
- CCn1ncc(-c2nc3c(O[C@H]4CCN(C(=O)N[C@H](C)c5ccccc5)C4)ncnc3n2C)c1C — 17-fold higher, 630 nM
- CCn1ncc(-c2nc3c(S[C@H]4CCN(C(=O)C5CCOCC5)C4)ncnc3n2C)c1C — 2.1-fold lower, 18 nM
- CCC(=O)N1CC[C@H](Oc2ncnc3c2nc(C(F)F)n3CC)C1 — 2.7-fold higher, 100 nM
- CCn1ncc(-c2nc3c(O[C@H]4CCN(C(C)=O)C4)ncnc3n2C)c1C — 1.5-fold higher, 56 nM
- CCCn1c(-c2cnc(C)nc2)nc2c(O[C@H]3CCN(C(=O)CC)C3)ncnc21 — 3.5-fold higher, 130 nM
- CCn1ncc(-c2nc3c(O[C@H]4CCN(C(=O)c5ocnc5C)C4)ncnc3n2C)c1C — 2.5-fold lower, 15 nM
- CCn1ncc(-c2nc3c(O[C@H]4CCN(c5nccc(-c6ccco6)n5)C4)ncnc3n2C)c1C — 3.5-fold higher, 128 nM
- CCn1ncc(-c2nc3c(O[C@H]4CCN(C(=O)NC5CCCCC5)C4)ncnc3n2C)c1C — 6.2-fold higher, 230 nM
- CCn1ncc(-c2nc3c(O[C@H]4CCN(C(=O)c5ccc(C)nc5)C4)ncnc3n2C)c1C — 1.9-fold higher, 70 nM
- CCC(=O)N1CC[C@H](Oc2ncnc3[nH]c(-c4cnn(CC)c4C)nc23)C1 — 1.5-fold lower, 24 nM
- CCn1c(-c2ccc(C(F)(F)F)cc2)nc2c(O[C@H]3CCN(C(=O)C4CC4)C3)ncnc21 — 11-fold lower, 3.4 nM
- CCn1c(-c2cnc(C)c(F)c2)nc2c(O[C@H]3CCN(C(=O)C4CC4)C3)ncnc21 — 8.6-fold lower, 4.3 nM
- CCn1ncc(-c2nc3c(O[C@H]4CCN(C(=O)c5cn(C)nn5)C4)ncnc3n2C)c1C — 7.1-fold lower, 5.2 nM
- CCn1c(-c2cnc(C)nc2)nc2c(OC3CN(Cc4ccccc4)CC3(C)C)ncnc21 (configuration not stated) — within 1.5-fold, 28 nM
- CCn1ncc(-c2nc3c(O[C@H]4CCN(C(=O)c5cn[nH]c5)C4)ncnc3n2C)c1C — 2.3-fold lower, 16 nM
- CCC(=O)N1CC[C@H](Oc2ncnc3c2nc(Oc2cnc(C)nc2)n3C)C1 — 10-fold higher, 380 nM
- CCC(=O)N1CC[C@H](Oc2ncnc3c2nc(-c2cnc(C(C)(C)C)s2)n3C)C1 — 23-fold lower, 1.6 nM
- CCn1c(-c2cnc(C)nc2)nc2c(O[C@H]3CCN(C(=O)C4CCOC4)C3)ncnc21 (some centres not stated) — 6.4-fold lower, 5.8 nM
- CCn1c(-c2ccc(C(F)(F)F)nc2)nc2c(O[C@H]3CCN(C(=O)N4CC(OC)C4)C3)ncnc21 — lower, < 1 nM
- CCn1c(C(=O)NCC2CC2)nc2c(O[C@H]3CCN(C(=O)OC(C)(C)C)C3)ncnc21 — 4.1-fold higher, 150 nM
- CCn1ncc(-c2nc3c(O[C@H]4CCCN(C(=O)OC(C)(C)C)C4)ncnc3n2C)c1C — 2.5-fold higher, 94 nM
- CCC(=O)N1CC[C@H](Oc2ncnc3c2nc(-c2cnn(-c4ccccc4)c2)n3C)C1 — 5.7-fold lower, 6.5 nM
- CCn1ncc(-c2nc3c(O[C@H]4CCN(C(=O)c5nnc(N(C)C)o5)C4)ncnc3n2C)c1C — 1.8-fold higher, 68 nM
- CCn1ncc(-c2nc3c(S[C@H]4CCN(C(=O)OCC(C)C)C4)ncnc3n2C)c1C — within 1.5-fold, 30 nM
- CCn1c(N(C)C(C)C)nc2c(O[C@H]3CCN(C(=O)OC(C)(C)C)C3)ncnc21 — 16-fold higher, 580 nM
- CCn1ncc(-c2nc3c(O[C@H]4CCN(C(=O)c5ccno5)C4)ncnc3n2C)c1C — 7.9-fold lower, 4.7 nM
- CCn1c(N(C)CCO)nc2c(O[C@H]3CCN(C(=O)OC(C)(C)C)C3)ncnc21 — 22-fold higher, 830 nM
- CCn1ncc(-c2nc3c(O[C@H]4CCN(C(=O)C(C)C)C4)ncnc3n2C)c1C — 9.2-fold lower, 4 nM
- CCn1c(-c2cnc(C)nc2)nc2c(O[C@H]3CCCN(c4ccccn4)C3)ncnc21 — 2-fold higher, 73 nM
- CCC(=O)N1CC[C@H](Oc2ncnc3c2nc(I)n3C)C1 — 3.8-fold higher, 140 nM
- CCn1ncc(-c2nc3c(O[C@H]4CCN(C(=O)OC)C4)ncnc3n2C)c1C — 3.1-fold lower, 12 nM
- CCn1c(-c2cnc(C)nc2)nc2c(O[C@H]3CCN(C(=O)C4[C@@H](C)[C@@H]4C)C3)ncnc21 (some centres not stated) — 2.8-fold lower, 13 nM
